Data as given in patent publication US20240368122A1, “JAK2 INHIBITORS AND METHODS OF USE THEREOF” (RELAY THERAPEUTICS, INC., priority 2021, published 2024).
Like-named read-outs stand apart in the source and are kept apart here.

Tests used:
[1] = target: T1, JAK2 JH2 WT (V536-D812) [W659A, W777A, F794H solubilizing mutations] (Homo sapiens, UniProt O60674, F794H/W659A/W777A); experiment: Surface Plasmon Resonance (SPR) binding assay, JAK2 JH2 domain
T1 construct: **JAK2 JH2 WT (V536-D812) [W659A, W777A, F794H solubilizing mutations]; C-thrombin-avi-His6; thrombin cleavage site (C); His6 (C); purchased Biortus
T1 sequence (O60674 536-812 W659A/W777A/F794H): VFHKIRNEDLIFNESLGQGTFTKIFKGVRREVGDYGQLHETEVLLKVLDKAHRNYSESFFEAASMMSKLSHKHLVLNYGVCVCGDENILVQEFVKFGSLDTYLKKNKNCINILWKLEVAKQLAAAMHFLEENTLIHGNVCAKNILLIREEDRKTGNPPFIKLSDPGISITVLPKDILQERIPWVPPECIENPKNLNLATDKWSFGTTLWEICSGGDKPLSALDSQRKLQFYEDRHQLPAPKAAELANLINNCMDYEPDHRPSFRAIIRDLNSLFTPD
Experimental: Selected compounds of the present disclosure were tested in a Surface Plasmon Resonance (SPR) Assay to measure their binding kinetics and affinity for proteins of interest.
Prepare buffer: 50 mM HEPES pH 7.5, 150 mM NaCl, 0.05% (v/v) Tween, and 10% (v/v) glycerol were combined and pH was adjusted to 7.5, then filtered. 5 mM DTT, was added, and buffer without DMSO was reserved for compound resuspension. 2% (v/v) DMSO was added for assay buffer, and separately 1% DMSO was used to make buffer for resuspending compounds.
Prepare compounds: Using a Bravo liquid handler, 99 μL of 1% (v/v) DMSO assay buffer was added to 1 μL compounds in DMSO.
Run 8K Method: Biotin CAPture (CAP) chip surface was regenerated prior to run by: Inserting CAP chip into Biacore 8K, prime machine with assay buffer with 2% (v/v) DMSO; Setting instrument temperature to 20° C.; Conditioning surface with NaOH/GdnHCl reagents from CAP chip kit (60 seconds, 10 μL/min); and Capturing oligo-Streptavidin (SA) reagent from CAP kit (600 seconds, 1 μL/min), expected capture ˜2500 RU. JAK2 JH1 or JH2 protein was immobilized by preparing a sample of 0.5 uM JH1 or 0.4 uM JH2 protein diluted in assay buffer without DMSO and supplemented with 10 uM of a selected compound of the invention as a stabilizer (370 seconds, 5 uL/min), expected capture ˜1000 RU. Remaining biotin sites on SA were blocked with 1 uM biotin (30 seconds, 20 uL/min), then equilibrated for 1800 seconds at 100 uL/min. Compounds being assayed were run in single cycle kinetics: 4 doses with a top concentration of 5 uM (JH1) or 500 nM (JH2), dilution factor of 3, at 20° C., for a contact time of 60 seconds, and a dissociation time of 300 seconds (JH1) or 1200 seconds (JH2), at a flow rate of 30 uL/min. The surface was completely regenerated after each compound is run, and JH1 or JH2 protein was immobilized fresh prior to each new compound. Data were fitted kinetically with 1:1 binding model using Biacore Insight Evaluation Software.

[2] = test system: TF1 JAK2 V617F STAT3 reporter; experiment: Cellular TF1 STAT3 assay (luciferase reporter), JAK2 V617F; type: cell-based; conditions: read-out: Cell PD-TF1 JAK2 V617F STAT3 (IC50)
Experimental: (§1) Selected compounds of the present disclosure were tested in a Cellular TF1 STAT3 or STAT5 assay, to measure the degree of JAK2-mediated STAT3 or STAT5 phosphorylation, respectively. TF1 cells (immortalized erythroleukemia line) expressing either wildtype or V617F mutant JAK2 with a luciferase reporter were used.
(§2) Cell culture: Cells were put into antibiotic selection (1 ug/ml puro+500 ug/ml Geneticin) when first thawed then maintained in growth media without antibiotics. Cells were maintained in exponential growth phase, between 0.02-1 E6 cells/ml.
(§3) Compound preparation: Compounds were screened as 10-point dose response curves 1:3 dilutions. DMSO is used as the vehicle control. All wells were normalized to the same final DMSO concentration. Compounds were pre-spotted onto 384 well plates using an Echo acoustic dispenser, 50 nL of 1000× (10 mM top concentration) DMSO stock/well. Each compound is run in triplicate plates.
(§4) Cell plating: Cells were counted using Vi-Cell XR, then cells were spun down and resuspended in growth media to 200,000 cells/ml. Cells were added to plates containing compound. 10,000 cells/well in 50 ul volume using a Biomek liquid handler. Plates were briefly mixed on a shaker for 1 minute at 2500 rpm then placed in a 37° C., 5% CO2 incubator overnight for 18-20 hrs.
(§5) Measuring luciferase activity: ONE-glo reagent was brought to room temperature, and 25 μL of ONE-glo assay reagent was added to each well using Biomek liquid handler. The plates were incubated for 10 minutes at room temperature, then luminescence was measured on an Envision plate reader.

[3] = test system: TF1 JAK2 V617F STAT5 reporter; experiment: Cellular TF1 STAT5 assay (luciferase reporter), JAK2 V617F; type: cell-based; conditions: read-out: Cell PD TF1 V617F STAT5 (IC50)
Experimental: as §1, §2, §3, §4, §5

[4] = Homo sapiens, TF-1, TF1 cells, JAK2 V617F

| Structure (SMILES) | Kd [1] [nM] | IC50 [2, 4] [nM] | IC50 [3, 4] [nM] | Kd ([1]; SPR, JAK2 JH2 domain) [nM] | IC50 ([2]; TF1 JAK2 V617F) [nM] | IC50 ([3]; TF1 JAK2 V617F) [nM] |
| --- | --- | --- | --- | --- | --- | --- |
| CNC(=O)c1nnc(NC(=O)C2CC2)cc1Nc1cccc(-c2cn([C@H]3CN(Cc4cccc(C)n4)[C@@H]3C)nn2)c1OC (stereo in doubt) [Compound 235] | 0.01 to 10 | 50 to 500 | 50 to 500 |  |  |  |
| CNC(=O)c1nnc(NC(=O)C2CC2)cc1Nc1cccc(-c2cn([C@H]3CN(Cc4cccc(Cl)n4)[C@@H]3C)nn2)c1OC (stereo in doubt) [Compound 236] | 0.01 to 10 | 50 to 500 | 50 to 500 |  |  |  |
| CNC(=O)c1nnc(NC(=O)C2CC2)cc1Nc1cccc(-c2cn(C3CN(Cc4cccc(C#N)n4)[C@@H]3C)nn2)c1OC (stereo in doubt) [Compound 237] | 0.01 to 10 | 500 to 5000 | 500 to 5000 |  |  |  |
| CNC(=O)c1nnc(NC(=O)C2CC2)cc1Nc1cccc(-c2cn([C@@H]3CN(Cc4cccc(C)n4)[C@H]3C)nn2)c1OC (stereo in doubt) [Compound 238] | 0.01 to 10 | 500 to 5000 | 500 to 5000 |  |  |  |
| CNC(=O)c1nnc(NC(=O)C2CC2)cc1Nc1cccc(-c2cn(C3CN(Cc4cccc(Cl)n4)[C@@H]3C)nn2)c1OC (stereo in doubt) [Compound 239] | 0.01 to 10 | 500 to 5000 | 500 to 5000 |  |  |  |
| CNC(=O)c1nnc(NC(=O)C2CC2)cc1Nc1cccc(-c2cnn([C@@H]3CN(Cc4cccnn4)[C@H]3C)c2)c1OC (stereo in doubt) [Compound 323] | 0.01 to 10 | 500 to 5000 | 500 to 5000 |  |  |  |
| CNC(=O)c1nnc(NC(=O)C2CC2)cc1Nc1cccc(-c2ccc(NC(=O)Cc3cccn(C)c3=O)cc2)c1OC [Compound 2] |  |  |  | 0.01 to 10 | 5000 to 100000 | 5000 to 100000 |
| CNC(=O)c1nnc(NC(=O)C2CC2)cc1Nc1cccc(-c2cnc(C(=O)NCc3cccn(C)c3=O)cn2)c1OC [Compound 7] |  |  |  | 0.01 to 10 | 500 to 5000 | 5000 to 100000 |
| CNC(=O)c1nnc(NC(=O)C2CC2)cc1Nc1cccc(-c2cnc(C(=O)N(C)Cc3ccccn3)nc2)c1OC [Compound 13] |  |  |  | 0.01 to 10 | 500 to 5000 | 500 to 5000 |
| CNC(=O)c1nnc(NC(=O)C2CC2)cc1Nc1cccc(-c2ccc(C(=O)N(CCOC)Cc3cccn(C)c3=O)nc2)c1OC [Compound 15] |  |  |  | 0.01 to 10 | 5000 to 100000 | 5000 to 100000 |
| CNC(=O)c1nnc(NC(=O)C2CC2)cc1Nc1cccc(-c2ccc(C(=O)N(Cc3cccn(C)c3=O)CC(F)F)nc2)c1OC [Compound 16] |  |  |  | 0.01 to 10 | 500 to 5000 | 5000 to 100000 |
| CNC(=O)c1nnc(NC(=O)C2CC2)cc1Nc1cccc(-c2ccc(C(=O)N(C)Cc3ccccn3)nc2)c1OC [Compound 19] |  |  |  | 0.01 to 10 | 500 to 5000 | 500 to 5000 |
| CNC(=O)c1nnc(NC(=O)C2CC2)cc1Nc1cccc(-c2ccc(C(=O)N(C)Cc3cc(C#N)ccn3)nc2OC)c1OC [Compound 20] |  |  |  | 0.01 to 10 | 500 to 5000 | 500 to 5000 |
| CNC(=O)c1nnc(NC(=O)C2CC2)cc1Nc1cccc(-c2cnc(C(=O)N(CCOC)Cc3cccn(C)c3=O)c(F)c2)c1OC [Compound 21] |  |  |  | 0.01 to 10 | 500 to 5000 | 500 to 5000 |
| CNC(=O)c1nnc(NC(=O)C2CC2)cc1Nc1cccc(-c2cnc(C(=O)N(CCF)Cc3cccn(C)c3=O)c(F)c2)c1OC [Compound 22] |  |  |  | 0.01 to 10 | 500 to 5000 | 500 to 5000 |
| CNC(=O)c1nnc(NC(=O)C2CC2)cc1Nc1cccc(-c2ccc(C(=O)N(C)Cc3cccn(C)c3=O)nc2)c1OC [Compound 23] |  |  |  | 0.01 to 10 | 500 to 5000 | 50 to 500 |
| CNC(=O)c1nnc(NC(=O)C2CC2)cc1Nc1cccc(-c2cnc(C(=O)N(C)Cc3cccn(C)c3=O)cc2C)c1OC [Compound 24] |  |  |  | 0.01 to 10 | 500 to 5000 | 500 to 5000 |

| Structure (SMILES) | Kd [1] [nM] | IC50 [2, 4] [nM] | IC50 [3, 4] [nM] | Kd ([1]; SPR, JAK2 JH2 domain) [nM] | IC50 ([2]; TF1 JAK2 V617F) [nM] | IC50 ([3]; TF1 JAK2 V617F) [nM] |
| --- | --- | --- | --- | --- | --- | --- |
| CNC(=O)c1nnc(NC(=O)C2CC2)cc1Nc1cccc(-c2ccc(C(=O)N(C)Cc3cccn(C)c3=O)nc2OC)c1OC [Compound 25] |  |  |  | 0.01 to 10 | 500 to 5000 | 500 to 5000 |
| CNC(=O)c1nnc(NC(=O)C2CC2)cc1Nc1cccc(-c2cnc(C(=O)N(C)Cc3ccccn3)c(F)c2)c1OC [Compound 27] |  |  |  | 0.01 to 10 | 50 to 500 | 50 to 500 |
| CNC(=O)c1nnc(NC(=O)C2CC2)cc1Nc1cccc(-c2cnc(C(=O)N(C)Cc3cccn(C)c3=O)c(F)c2)c1OC [Compound 29] |  |  |  | 0.01 to 10 | 50 to 500 | 50 to 500 |
| CNC(=O)c1nnc(NC(=O)C2CC2)cc1Nc1cccc(-c2ccc(C(=O)N(C)Cc3cnc4ccc(Cl)cn34)nc2)c1OC [Compound 31] |  |  |  | 0.01 to 10 | 500 to 5000 | 500 to 5000 |
| CNC(=O)c1nnc(NC(=O)C2CC2)cc1Nc1cccc(-c2cnn(C3(CC#N)CN(Cc4ccccn4)C3)c2)c1OC [Compound 38] |  |  |  | 10 to 50 | 500 to 5000 | 5000 to 100000 |
| CNC(=O)c1nnc(NC(=O)C2CC2)cc1Nc1cccc(-c2ccc(C(=O)N(C)Cc3cccnn3)nc2)c1OC [Compound 45] |  |  |  | 0.01 to 10 | 500 to 5000 | 500 to 5000 |
| CNC(=O)c1nnc(NC(=O)C2CC2)cc1Nc1ccc(C)c(-c2cnc(C(=O)N(C)Cc3ccn(C)n3)c(F)c2)c1OC [Compound 47] |  |  |  | 0.01 to 10 | 500 to 5000 | 500 to 5000 |
| CNC(=O)c1nnc(NC(=O)C2CC2)cc1Nc1cccc(-c2cnc(C(=O)N(C)Cc3ccn(C)n3)nc2)c1OC [Compound 49] |  |  |  | 0.01 to 10 | 500 to 5000 | 500 to 5000 |
| CNC(=O)c1nnc(NC(=O)C2CC2)cc1Nc1cccc(-c2ccc(C(=O)N(C)C(C)c3nc(C)no3)nc2)c1OC (stereo not drawn) [Compound 50] |  |  |  | 0.01 to 10 | 5000 to 100000 | 5000 to 100000 |
| CNC(=O)c1nnc(NC(=O)C2CC2)cc1Nc1cccc(-c2ccc(C(=O)N(C)Cc3cn(C)nc3C(F)(F)F)nc2)c1OC [Compound 51] |  |  |  | 0.01 to 10 | 50 to 500 | 50 to 500 |
| CNC(=O)c1nnc(NC(=O)C2CC2)cc1Nc1cccc(-c2ccc(C(=O)N(C)Cc3ccccc3C(F)(F)F)nc2)c1OC [Compound 52] |  |  |  | 0.01 to 10 | 500 to 5000 | 500 to 5000 |
| CNC(=O)c1nnc(NC(=O)C2CC2)cc1Nc1cccc(-c2cnc(C(=O)N(C)Cc3ccn(C)n3)c(F)c2)c1OC [Compound 53] |  |  |  | 0.01 to 10 | 500 to 5000 | 500 to 5000 |
| CNC(=O)c1nnc(NC(=O)C2CC2)cc1Nc1cccc(-c2ccc(C(=O)N(C)CC3Cc4ccccc4CO3)nc2)c1OC (stereo not drawn) [Compound 54] |  |  |  | 0.01 to 10 | 500 to 5000 | 5000 to 100000 |
| CNC(=O)c1nnc(NC(=O)C2CC2)cc1Nc1cccc(-c2cnc(C(=O)N(C)Cc3nn(C)cc3Br)nc2)c1OC [Compound 56] |  |  |  | 0.01 to 10 | 50 to 500 | 50 to 500 |
| CNC(=O)c1nnc(NC(=O)C2CC2)cc1Nc1cccc(-c2ccc(C(=O)N(C)Cc3cscn3)nc2)c1OC [Compound 57] |  |  |  | 0.01 to 10 | 50 to 500 | 50 to 500 |
| CNC(=O)c1nnc(NC(=O)C2CC2)cc1Nc1cccc(-c2ccc(C(=O)N(C)Cc3nccs3)nc2)c1OC [Compound 58] |  |  |  | 0.01 to 10 | 500 to 5000 | 500 to 5000 |
